{"source": "ChEMBL document CHEMBL1135974", "about": "(J Med Chem, 2002)", "key": {"D(3) dopamine receptor [1]": {"target": "T1, D(3) dopamine receptor (Homo sapiens, UniProt P35462)", "T1 sequence (P35462 whole entry)": "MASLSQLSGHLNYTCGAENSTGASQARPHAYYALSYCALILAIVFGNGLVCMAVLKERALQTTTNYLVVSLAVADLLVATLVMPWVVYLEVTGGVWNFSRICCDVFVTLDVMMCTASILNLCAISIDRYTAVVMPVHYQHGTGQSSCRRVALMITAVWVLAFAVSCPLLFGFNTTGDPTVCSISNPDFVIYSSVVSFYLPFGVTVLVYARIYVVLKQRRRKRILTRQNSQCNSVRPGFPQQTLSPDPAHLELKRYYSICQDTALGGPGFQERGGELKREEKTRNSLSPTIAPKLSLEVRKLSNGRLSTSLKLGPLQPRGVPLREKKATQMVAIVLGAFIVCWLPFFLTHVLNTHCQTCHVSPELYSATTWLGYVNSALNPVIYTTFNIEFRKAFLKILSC", "details": "Cricetulus griseus; CHO"}, "D(3) dopamine receptor [2]": {"target": "T1, D(3) dopamine receptor", "details": "Cricetulus griseus; CHO", "remark": "listed apart in the source"}, "[3]": {"target": "Adrenergic receptor alpha-1 (Sus scrofa)", "test": "[…] from porcine Alpha-1 adrenergic receptor", "format": "protein assay"}, "D(2) dopamine receptor [4]": {"target": "T2, D(2) dopamine receptor (Homo sapiens, UniProt P14416)", "T2 sequence (P14416 whole entry)": "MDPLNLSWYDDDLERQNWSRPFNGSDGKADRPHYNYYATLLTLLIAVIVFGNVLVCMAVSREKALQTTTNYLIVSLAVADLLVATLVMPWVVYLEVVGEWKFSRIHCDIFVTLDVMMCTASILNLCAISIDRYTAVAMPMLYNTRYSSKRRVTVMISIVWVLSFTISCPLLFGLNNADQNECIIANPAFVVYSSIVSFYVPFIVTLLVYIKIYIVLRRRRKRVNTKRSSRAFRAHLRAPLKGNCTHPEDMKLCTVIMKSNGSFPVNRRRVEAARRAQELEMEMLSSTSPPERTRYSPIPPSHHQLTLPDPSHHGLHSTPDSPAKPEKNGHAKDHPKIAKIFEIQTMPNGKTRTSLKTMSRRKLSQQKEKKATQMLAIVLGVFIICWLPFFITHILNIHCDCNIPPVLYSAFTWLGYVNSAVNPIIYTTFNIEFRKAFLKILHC", "description": "Binding affinity for human Dopamine receptor D2 (short) by [3H]- spiperone displacement."}, "D(3) dopamine receptor [5]": {"target": "T1, D(3) dopamine receptor", "description": "Binding affinity for human Dopamine receptor D3 by [3H]- spiperone displacement."}, "D(2) dopamine receptor [6]": {"target": "T2, D(2) dopamine receptor", "remark": "listed apart in the source", "description": "Binding affinity for human Dopamine receptor D2 (long) by [3H]- spiperone displacement."}, "[7]": {"target": "5-HT2 receptor (Sus scrofa)", "test": "Binding affinity for porcine 5-hydroxytryptamine 2 receptor using [3H]- ketanserin"}, "D(4) dopamine receptor": {"target": "T3, D(4) dopamine receptor (Homo sapiens, UniProt P21917)", "T3 sequence (P21917 whole entry)": "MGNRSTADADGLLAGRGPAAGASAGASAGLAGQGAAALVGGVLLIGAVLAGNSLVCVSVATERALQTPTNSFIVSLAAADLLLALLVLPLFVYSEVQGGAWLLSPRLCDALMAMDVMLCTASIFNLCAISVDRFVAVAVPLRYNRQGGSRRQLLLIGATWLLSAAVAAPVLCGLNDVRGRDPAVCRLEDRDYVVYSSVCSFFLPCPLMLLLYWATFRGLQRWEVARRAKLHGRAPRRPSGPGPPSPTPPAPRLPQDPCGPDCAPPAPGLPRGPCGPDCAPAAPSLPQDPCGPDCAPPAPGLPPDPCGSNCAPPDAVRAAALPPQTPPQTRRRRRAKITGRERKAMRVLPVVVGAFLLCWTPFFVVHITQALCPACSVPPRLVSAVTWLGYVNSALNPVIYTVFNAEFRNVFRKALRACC", "description": "Binding affinity for human Dopamine receptor D4 by [3H]- spiperone displacement."}, "D(3) dopamine receptor [8]": {"target": "T1, D(3) dopamine receptor", "test": "Rate of [3H]thymidine uptake compared to quinpirole (100%) in Dopamine receptor D3 expressing CHO cells", "format": "functional, cell-based", "details": "Cricetulus griseus"}}, "note": "Calls of active or inactive are those of the source. The rule behind the calls is not given here.", "data": [{"smiles": "O=C(NCCCCN1CCN(c2cccc(Cl)c2Cl)CC1)c1cc2ccccc2o1", "values": [{"measurement": "Effect", "setting": "D(3) dopamine receptor [1]", "value": "inactive"}]}, {"smiles": "O=C(NCCCCN1CCN(c2cccc(Cl)c2Cl)CC1)c1cc2ccccc2s1", "values": [{"measurement": "NE", "setting": "D(3) dopamine receptor [2]", "value": "inactive"}]}, {"smiles": "COc1ccccc1N1CCN(CCCCNC(=O)c2cc3ccccc3[te]2)CC1", "values": [{"measurement": "NE", "setting": "D(3) dopamine receptor [2]", "value": "inactive"}]}, {"smiles": "O=C(NCCCCN1CCN(c2cccc(Cl)c2Cl)CC1)c1cc2ccccc2[te]1", "values": [{"measurement": "NE", "setting": "D(3) dopamine receptor [2]", "value": "inactive"}, {"measurement": "Ki", "setting": "[3]", "value": "> 1000", "unit": "nM"}, {"measurement": "Ki", "setting": "D(2) dopamine receptor [4]", "value": 48, "unit": "nM"}, {"measurement": "Ki", "setting": "D(3) dopamine receptor [5]", "value": 0.55, "unit": "nM"}, {"measurement": "Ki", "setting": "D(2) dopamine receptor [6]", "value": 91, "unit": "nM"}, {"measurement": "Ki", "setting": "[7]", "value": 730, "unit": "nM"}, {"measurement": "Ki", "setting": "D(4) dopamine receptor", "value": 150, "unit": "nM"}]}, {"smiles": "COc1ccccc1N1CCN(CCCCNC(=O)c2cc3ccccn3n2)CC1", "values": [{"measurement": "Effect", "setting": "D(3) dopamine receptor [8]", "value": 52, "unit": "%"}]}]}
